The values below come from patent US20050101542A1, “Combination therapy for controlling appetites” (Regents of the University of California, priority 2002, published 2005).

For assay [1], the target named is T1, cannabinoid binding to rat brain membranes (Rattus norvegicus, UniProt P20272).
T1 construct: from tissue; host or cells: rat brain membranes
In words: Displacement of cannabinoid binding to rat brain membranes. The following applies: rat brain membranes in vitro.

The subject of assay [2] is retinoid X receptor (RXR). Put plainly: GAL4 chimeric receptor transactivation assay in HeLa cells, RXR. Format: cell-based, human. The method, then:
Transactivator plasmids pFA-PPARα, pFA-PPARδ, pFA-PPARγ and pFA-RXR, which encoded for the […] Of hPPARα ? ((499-1404), hPPARδ (412-1320), hPPARγ (610-1434) and hRXR (402-1389) fused to the DNA-binding domain (residues 1-147) Of yeast GAL4 under control of the human cytomegalovirus (CMV) promoter were generated. The plasmids contained a neomycin-resistance gene to provide stable selection with G418 (200 μg-ml^−1; Calbiochem). The HeLa cells were cultured in Dulbecco's-modified Eagles's medium (DMEM) supplemented with fetal bovine serum (10%). The cells were transfected with Fugene 6 (3 μl, Roche) Containing the pFR-luc plasmid (1 μg, Stratagene). Eighteen hours following transfection, the culture media was replaced with supplemented DMEM containing hygromycin (100 μg-ml^−1, Calbiochem). After 4 weeks in culture, the surviving clones were isolated and analyzed by luciferase assay. […] The cells were cultured in supplemented DMEM containing hygromycin and G418. For transactivation assays, cells were seeded in 6-well plates (50,000 cells per well) and incubated for 7 hours in supplemented DMEM containing hygromycin and G418, plus appropriate concentrations of test compounds. Dual-luciferase reporter assay system (Promega) and an MLX Microtiter® plate luminometer (Dynex) were used to determine luciferase activity in cell lysates. […]

T1 sequence (P20272 whole entry): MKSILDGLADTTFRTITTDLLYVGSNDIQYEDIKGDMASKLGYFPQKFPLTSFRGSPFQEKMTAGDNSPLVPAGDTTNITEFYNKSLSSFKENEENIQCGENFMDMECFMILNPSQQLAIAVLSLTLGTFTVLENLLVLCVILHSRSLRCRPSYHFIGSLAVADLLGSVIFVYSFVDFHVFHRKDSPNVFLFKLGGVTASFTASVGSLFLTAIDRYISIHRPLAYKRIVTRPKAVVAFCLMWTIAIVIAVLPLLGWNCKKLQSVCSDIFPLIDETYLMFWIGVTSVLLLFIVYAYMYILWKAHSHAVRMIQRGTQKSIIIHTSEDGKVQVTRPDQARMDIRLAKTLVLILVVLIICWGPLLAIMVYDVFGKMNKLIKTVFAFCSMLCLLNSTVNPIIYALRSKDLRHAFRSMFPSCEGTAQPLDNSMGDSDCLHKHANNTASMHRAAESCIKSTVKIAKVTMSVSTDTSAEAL

In the case of `CCCCCCCC/C=C\CCCCCCCC(=O)NCCO` [OEA, Z-2-hydroxyethyl octadec-9-enamide], the “displacement of cannabinoid binding” value in assay [1] was “did not displace”. In addition, the “effect on RXR” value in assay [2] was “no effect”.
